Legend:
[1] = system: mice (female FVB strain), lung; test: In vivo permeability assay (Evans blue, LPS); parameters: species or system mouse; conditions: p190RhoGAP siRNA, endotoxin plus Ang-1
Experimental: Mice (8-12 weeks old, female FVB strain) were pretreated with Ang-1 (10 mcg, ip). 8 hours after the first Ang-1 injection, the second dose of Ang-1 (10 mcg, ip) and LPS (100 μg, ip) were co-injected. Lung permeability was assessed 16 hours after the second injection. Mice were anesthetized with Avertin (2,2,2-Tribromoethanol) and 2% Evans blue (50 μl) was then injected into the retro-orbital sinus. Ten minutes after Evans blue injection, mice were sacrificed and perfused with PBS with 2 mM EDTA for 10 minutes through a cannula placed in the right ventricle. […] Organs were then harvested and homogenized in 1.5 nil formamide. Evans blue was extracted by incubating the samples at 70° C. for 24 hours, and the concentration of Evans blue was estimated by dual-wavelength spectrophotometer (620 and 740 nm). The following formula was used to correct optical densities (E) for contamination with heme pigments: E620 (corrected)=E620−(1.426XE740+0.030).

[2] = system: RhoA; test: Rho activity assay (pull-down) in HMVEC-L; assay type: cell-based, human; conditions: p190RhoGAP siRNA
Experimental: (§1) These were performed and quantified using the commercially available kit according to the manufacturer's instruction (Cytoskeleton, Denver, Colo.). After signal starvation, HMVEC-L were treated with vehicle, Ang-1 (100 ng/ml) with or without inhibitor for the indicated time and harvested with lysis buffer. Following a brief centrifugation to remove cell debris, lysates from the cells containing equivalent protein concentrations were incubated for 60 minutes with 40 μL slurry of a GST-fusion protein composed of Rac1 or RhoA effector proteins coupled to agarose beads. After washing with lysis buffer, samples were subjected to immunoblotting and detected with anti-Rac1 or anti-RhoA antibody (Santa Cruz Biotechnology, Santa Cruz, Calif.). Whole cell lysates were also run to determine the total amount of Rac1 or RhoA protein.

[3] = system: HMVEC-L monolayer; test: Measurement of endothelial permeability in vitro (FITC-albumin); assay type: cell-based, human; conditions: p190RhoGAP siRNA
Experimental: (§2) Coster Transwell membranes (Corning Inc. Corning, N.Y.) were coated with 0.5% Gelatin and cells were grown until confluence. Vehicle or proteins with FITC-albumin (1 mg/ml) was added to the luminal chamber for 4 hours, and samples were taken from both the luminal and abluminal chamber for fluorometry analysis. The readings were converted with the use of a standard curve to albumin concentration. These concentrations were then used in the following equation to determine the permeability coefficient of albumin (Pa).
(§3) [A] is abluminal concentration; t is time in seconds; A is area of membrane in cm^2; V is volume of abluminal chamber; and [L] is luminal concentration. siRNA Transfection: HMVEC-Ls were seeded and control small interfering RNA (siRNA) (Ambion, Ausin, Tex.) or siRNA directed to human p190RhoGAP (5′-[…]-3′ SEQ ID NO: 5 and 5′-[…]-3′ SEQ ID NO: 6) was transfected using SilentFect Lipid reagent (Bio-Rad) according to the manufacturer's instructions. The cells were used for each experiment 3 days after transfection. Almost 90-100% cells were transfected with siRNA (checked by fluorescent labeled siRNA). Down-regulation of p190RhoGAP was verified by immunoblotting. We tested two different siRNA for the experiment and obtained similar results.

[4] = system: p190RhoGAP; test: siRNA knockdown of p190RhoGAP in HMVEC-L (immunoblot); assay type: cell-based, human
Experimental: as §3

[5] = system: Rac1; test: Rac1 activity assay (pull-down); assay type: cell-based, human; conditions: p190RhoGAP siRNA
Experimental: as §1

[6] = system: p190RhoGAP; test: In vivo delivery of siRNA, p190RhoGAP in mouse lung (Western); conditions: 10 μg siRNA, hydrodynamic tail vein delivery
Experimental: Mice were treated as above and lungs were harvested, fixed in 10% formalin, embedded in paraffin, sectioned, and stained with hematoxilin and eosin. In Vivo Delivery of siRNA: Delivery of siRNA into mice was performed by TransIT® Hydrodynamic delivery solution (Mires, Madision, Wis.) per the manufacturer's instruction. Mice were injected with either 10 μg control siRNA or 10 μg p190RhoGAP siRNA in 2 nil delivery solution injected into the tail vein over 7 seconds. Four days later, p190RhoGAP knockdown was confirmed by lysing organs in RIPA buffer and performing Western analysis as outlined above. In vivo permeability and histological examination were performed as described above.

[7] = system: myosin light chain (MLC) phosphorylation in HMVECs; test: MLC phosphorylation assay (Western blot); assay type: cell-based, human; conditions: for effect on Ang-2-induced phosphorylation of MLC: inhibitor 10 μM
Experimental: After signal starvation with 0.25% FBS EBM-2 for 24 h, cells were treated with 100 ng/ml Ang-2 or vehicle for 0, 1, 3, and 6 hours. Phosphorylated myosin light chain (MLC-p) (phospho-serine 19) and GAPDH were detected by Western blot analysis. For human subject serum effects on HMVECs, serum was diluted to 5% with EBM-2 and filtered with low protein binding PVDF membrane (0.22 μm, Millipore Corp, Bedford, Mass.). Anti-MLC-phospho-serine-19 Ab was obtained from Abcam Inc.

[8] = system: HMVEC monolayers; test: Immunofluorescence of endothelial architecture (F-actin, VE-cadherin); assay type: cell-based, human; conditions: for reversal of Ang-2 induced thick actin stress fibers and paracellular gaps: Ang-2 100 ng/ml, inhibitor 10 μM, 5 hours
Experimental: HMVEC were grown to confluence on glass coverslips coated with 1% gelatin. The cells were fixed for 10 minutes in 4% paraformaldehyde in PBS, incubated for 5 min in 0.5% Triton X-100 in PBS. After blocking, the monolayers were processed for staining with anti-VE-cadherin monoclonal antibody (BD Pharmingen, San Diego, Calif.) and Alexa Fluoro 488 goat anti-mouse IgG, rhodamine phalloidin (Molecular Probe, Eugene, Oreg.) for F-actin staining and TOPRO-3-iodine (Molecular Probe) for nuclear staining. Fluorescence images were obtained using a Bio Rad MRC confocal fluorescence microscope. For human subject serum experiments, serum was diluted to 10% with EBM-2 and filtered with low protein binding PVDF membrane (0.22 μm, Millipore Corp) prior to application on endothelial cell monolayers.

[9] = system: healthy adult mice; test: Lung histology after systemic Ang-2; assay type: in vivo, mouse; conditions: 3 hour after systemic Ang-2 administration
Source text: Lungs were harvested, fixed in 10% formalin, embedded in paraffin, sectioned, and stained with hematoxylin and eosin.

[10] = system: HMVEC monolayer; test: FITC-albumin permeability assay; assay type: cell-based, human; conditions: Ang-2 400 ng/ml, 8 hours
Experimental: as §2, with “HMVEC monolayer permeability was determined with the use of FITC-labeled bovine serum albumin (Sigma) as described elsewhere (Tinsley et al., Am. J. Physiol Cell Physiol. 279: C1285-1289 (2000)). Coster” for “Coster”, “fibronectin” for “0.5% Gelatin”, “Ang-2 (400 ng/ml)” for “proteins”, “(final 1” for “(1”, “8” for “4”
where [A] is abluminal concentration; t is time in seconds; A is area of membrane in cm2; V is volume of abluminal chamber; and [L] is luminal concentration. siRNA transfection of endothelial cells: HMVECs were seeded on 10 cm dishes for Western blot (or on 1% gelatin-coated coverslips for immunohistochemistry experiments) 24 hour before experiments. […] of validated, annealed small interfering RNA (siRNA) (Ambion, Inc. Austin Tex.) directed to human Tie-2 was transfected using silentFect Lipid reagent (Bio-Rad) according to manufacturer's instructions. Three days after transfection, cells were used for experiments. […]

[11] = system: RhoA; test: Rho activity pull-down assay; assay type: cell-based, human; conditions: Ang-2 100 ng/ml
Experimental: RhoA activity assay was performed and quantified using the RhoA activation assay kit according to the manufacturer's instruction (Cytoskeleton, Denver, Colo.). Lysates from control and Ang-2-treated cells containing equivalent protein concentrations were rotated for 60 minutes with 40 μl slurry of a GST-fusion protein composed of the Rho-binding domain of the specific RhoA effector rhotekin coupled to agarose beads. Beads were collected by centrifugation and washed three times with lysis buffer. Whole cell lysates from both control and Ang-2-treated cells were also run to determine baseline levels of total RhoA protein. Separated proteins were transferred to PVDF and immunoblotted with a monoclonal antibody to RhoA (Santa Cruz Biotechnology, Santa Cruz, Calif.).

[12] = system: Tie-2; test: Tie-2 phosphorylation (immunoprecipitation and Western blot); assay type: cell-based, human; conditions: HMVECs stimulated with Ang-2 100 ng/ml
Experimental: 200 μg of total protein were incubated with anti-Tie2 antibody for 3 hours, followed by incubation with protein A sepharose (Zymed, San Francisco, Calif.) for 2 hours at 4° C. After washing the beads, proteins were eluted by heating in SDS-sample buffer and detected by Western blot analysis with Anti-phospho-tyrosine (clone 4G10, Upstate Cell Signaling Solutions) as described before.

[13] = system: healthy adult mice; test: Lung wet-to-dry weight ratio; assay type: in vivo, mouse; conditions: Ang-2 treatment for 16 hours
Experimental: Lung wet weight (W) was determined immediately after removal of the right lung. Lung dry weight (D) was determined after the lung had been dried in an oven at 50° C. for 24 hours. The W/D ratio was calculated by dividing the wet weight by the dry weight.

[14] = system: healthy adult mice; test: Evans blue permeability assay after systemic Ang-2; assay type: in vivo, mouse; conditions: Ang-2 10 μg i.p., 16 hours
Experimental: Mice were injected with 10 μg of Ang-2 or vehicle intraperitoneal (i.p.) and, after 16 hours, were anesthetized with Avertin (2,2,2-tribromoethanol). 2% Evans blue (50 μl) was then injected into the retro-orbital sinus. (In preliminary experiments with control mice, n=6, we confirmed that the retro-orbital sinus provided a route of intravascular injection that allowed near-100% delivery of Evans blue in a reproducible fashion.) 10 minutes after Evans blue injection, mice were sacrificed and perfused with PBS for 10 minutes through a cannula placed in the right ventricle. Blood and PBS were vented through an incision in the vena cava. […] Washout of intravascular contents was also confirmed histologically after 10 minutes PBS perfusion. After homogenization in 1.5 ml formamide, Evans blue was extracted by incubating the samples at 70° C. for 24 hours, and the concentration of Evans blue was estimated by dual-wavelength spectroscopy to correct for heme E620 nm (corrected)=E620 nm−(1.426*E740 nm+0.030).

p190RhoGAP siRNA: siRNA directed to human p190RhoGAP (SEQ ID NO: 5 and 6) (chain 1 GGAUUGUGUGGAAUGUAAG; chain 2 CUUACAUUCCACACAAUCC; listed as RNA, chemistry not given here) [reference compound]
effect on protection by Ang-1 in the lung [1]: sufficient to block the protective effect of Ang-1
effect on Ang-1-induced RhoA inhibition [2]: abolish
effect on basal permeability [3]: little effect
effect on rescue by Ang-1 ([3]; endotoxin plus Ang-1): prevent the rescue effect of Ang-1
block of p190RhoGAP expression [4]: 90%
effect on Ang-1-induced Rac1 activation [5]: did not affect
p190RhoGAP expression in lung tissue [6]: diminished p190RHoGAP expression

CC(C)=C[C@H](O)C1=C[C@@H](O)[C@@H]2O[C@@H]2C1=O [Panepoxydone]
effect on Ang-2 mediated MLC phosphorylation ([7]; panepoxydone added to EC monolayers): marked inhibition

C[C@@H](N)[C@H]1CC[C@H](C(=O)Nc2ccncc2)CC1 [Y27632, reference compound]
reversal of Ang-2 induced thick actin stress fibers and paracellular gaps [8]: completely reversed
effect on Ang-2-induced phosphorylation of MLC ([7]; Ang-2 100 ng/ml): completely abolished

O=S(=O)(c1cccc2c(I)cccc12)N1CCCNCC1 [ML-7, reference compound]
reversal of Ang-2 induced thick actin stress fibers and paracellular gaps [8]: partially reversed
effect on Ang-2-induced phosphorylation of MLC ([7]; Ang-2 100 ng/ml): partially inhibited

B1: Ang-2: Human recombinant angiopoietin-2 purchased from R&D systems; Tie-2 ligand (protein, listed as Homo sapiens)
chain: MWQIVFFTLSCDLVLAAAYNNFRKSMDSIGKKQYQVQHGSCSYTFLLPEMDNCRSSSSPYVSNAVQRDAPLEYDDSVQRLQVLENIMENNTQWLMKLENYIQDNMKKEMVEIQQNAVQNQTAVMIEIGTNLLNQTAEQTRKLTDVEAQVLNQTTRLELQLLEHSLSTNKLEKQILDQTSEINKLQDKNSFLEKKVLAMEDKHIIQLQSIKEEKDQLQVLVSKQNSIIEELEKKIVTATVNNSVLQKQQHDLMETVNNLLTMMSTSNSAKDPTVAKEEQISFRDCAEVFKSGHTTNGIYTLTFPNSTEEIKAYCDMEAGGGGWTIIQRREDGSVDFQRTWKEYKVGFGNPSGEYWLGNEFVSQLTNQQRYVLKIHLKDWEGNEAYSLYEHFYLSSEELNYRIHLKGLTGTAGKISSISQPGNDFSTKDGDNDKCICKCSQMLTGGWWFDACGPSNLNGMYYPQRQNTNKFNGIKWYYWKGSGYSLKATTMMIRPADF
lung histology [9]: increase in congestion and early extravasation into the interstitium
increase in permeability (Pa of FITC-albumin) compared with control [10]: approximately 20%
actin stress fibers and intercellular gaps ([8]; recombinant human Ang-2 100 ng/ml alone, HMVECs): induced the formation of thick actin stress fibers and intercellular gaps
active form of RhoA (Rho-GTP) [11]: increased the active form of RhoA
time of peak Rho-GTP [11]: peaking between 30 minutes and 1 hour
MLC phosphorylation on stimulation with Ang-2 alone ([7]; Ang-2 100 ng/ml, serum-starved HMVECs): elevated at 3 hours and 6 hours
effect on Tie-2 phosphorylation [12]: inhibitory effect
lung wet/dry weight (W/D) ratio [13]: 6.13±0.03
extravasated Evans blue in intestines versus vehicle [14]: trend toward increased permeability
extravasated Evans blue in livers versus vehicle [14]: twofold increase
extravasated Evans blue in lungs versus vehicle [14]: threefold increase

Source: patent publication US20130252821A1, “METHODS AND COMPOSITIONS FOR THE TREATMENT AND DIAGNOSIS OF DISEASES CHARACTERIZED BY VASCULAR LEAK, HYPOTENSION, OR A PROCOAGULANT STATE” (Beth Israel Deaconess Medical Center, Inc., priority 2005, published 2013)
